Source: ChEMBL document CHEMBL3588845, “Protozoan Parasite Growth Inhibitors Discovered by Cross-Screening Yield Potent Scaffolds for Lead Discovery” (J Med Chem, 2015)

Assays:
[1] = Toxicity against human HepG2 cells incubated for 48 hrs by MTT assay; format: cell-based; conditions: read-out: TC50
Trypanosoma cruzi = assay: Antiparasite activity against Trypanosoma cruzi Tulahuen expressing beta-galactosidase assessed as growth inhibition incubated for 96 hrs by CPRG dye based assay; format: functional, organism-based
Leishmania major [2] = assay: Antiparasite activity against Leishmania major promastigotes assessed as growth inhibition incubated for 44 hrs by alamar blue dye based fluorescence assay; format: functional, organism-based
Plasmodium falciparum [3] = assay: Antiparasite activity against drug resistant Plasmodium falciparum W2 assessed as growth inhibition incubated for 72 hrs by SYBR green fluorescence assay; format: functional, organism-based; conditions: W2, 72 h
Trypanosoma brucei = assay: Antiparasite activity against Trypanosoma brucei 427 assessed as growth inhibition incubated for 48 hrs by PrestoBlue based fluorescence assay; format: functional, organism-based; conditions: Trypanosoma brucei, 427, 48 h
Leishmania major [4] = assay: Antiparasite activity against luciferase-expressing Leishmania major amastigotes isolated from infected in mouse RAW264.7 cells assessed as growth inhibition incubated for 96 hrs by luciferase reporter gene assay; format: functional, organism-based; conditions: RAW264.7, 96 h
Plasmodium falciparum [5] = assay: Antiparasite activity against drug resistant Plasmodium falciparum C235 assessed as growth inhibition incubated for 72 hrs by SYBR green fluorescence assay; format: functional, organism-based; conditions: C235, 72 h
Plasmodium falciparum [6] = assay: Antiparasite activity against Plasmodium falciparum D6 assessed as growth inhibition incubated for 72 hrs by SYBR green fluorescence assay; format: functional, organism-based; conditions: D6, 72 h

Structure (SMILES)	CC50 at 48 h [1]	EC50 (Trypanosoma cruzi)	EC50 (Leishmania major [2])	EC50 (Plasmodium falciparum [3])	EC50 (Trypanosoma brucei)	EC50 (Leishmania major [4])	EC50 (Plasmodium falciparum [5])	EC50 (Plasmodium falciparum [6])
O=S(=O)(c1ccc(-c2cc3c(Nc4ccc(OCc5ccccc5)c(Cl)c4)ncnc3s2)cc1)N1CCOCC1	> 15000 nM	–	–	–	–	–	–	–
O=S(=O)(c1ccc(-c2ccc3c(Nc4ccc(OCc5ccccc5)c(Cl)c4)cnnc3c2)cc1)N1CCOCC1	> 11000 nM	15000 nM	> 15000 nM	530 nM	1200 nM	> 15000 nM	300 nM	150 nM
CN1CCCN(S(=O)(=O)c2ccc(-c3ccc4ccnc(Nc5ccc(OCc6cccc(F)c6)c(Cl)c5)c4c3)cc2)CC1	> 15000 nM	4700 nM	1300 nM	270 nM	730 nM	2200 nM	100 nM	86 nM
CN1CCN(S(=O)(=O)c2ccc(-c3ccc4ncc(C#N)c(Nc5ccc(OCc6cccc(F)c6)c(Cl)c5)c4c3)cc2)CC1	> 15000 nM	> 50000 nM	> 15000 nM	200 nM	1100 nM	> 15000 nM	110 nM	82 nM
Fc1cccc(COc2ccc(Nc3cnnc4ccc(-c5cccc(N6CCOCC6)c5)cc34)cc2Cl)c1	> 15000 nM	> 50000 nM	> 15000 nM	1500 nM	1100 nM	> 15000 nM	690 nM	540 nM
O=S(=O)(c1ccc(-c2ccc3nncc(Nc4ccc(OCc5ccccc5)c(Cl)c4)c3c2)cc1)N1CCOCC1	> 15000 nM	> 50000 nM	> 15000 nM	940 nM	1200 nM	> 15000 nM	1400 nM	820 nM
CN1CCN(S(=O)(=O)c2ccc(-c3ccc4cnnc(Nc5ccc(OCc6cccc(F)c6)c(Cl)c5)c4c3)cc2)CC1	> 5000 nM	> 50000 nM	> 3200 nM	430 nM	2000 nM	> 4000 nM	380 nM	130 nM
CN1CCN(S(=O)(=O)c2ccc(-c3cc4c(Nc5ccc(OCc6cccc(F)c6)c(Cl)c5)ncnc4s3)cc2)CC1	> 15000 nM	–	–	–	–	–	–	–
CN1CCN(S(=O)(=O)c2ccc(-c3ccc4c(Nc5ccc(OCc6cccc(F)c6)c(Cl)c5)nncc4c3)cc2)CC1	> 15000 nM	18000 nM	1300 nM	130 nM	1200 nM	> 15000 nM	76 nM	45 nM
CN1CCN(S(=O)(=O)c2ccc(-c3ccc4ncc(C#N)c(Nc5ccc(OCc6ccccc6)c(Cl)c5)c4c3)cc2)CC1	> 15000 nM	> 50000 nM	4100 nM	510 nM	1900 nM	> 15000 nM	260 nM	210 nM
C[C@@H]1[C@H](O)[C@@H](C)/C=C/C=C/C=C/C=C/C=C/C=C/C=C/[C@H](O[C@@H]2O[C@H](C)[C@@H](O)[C@H](N)[C@@H]2O)C[C@@H]2O[C@](O)(C[C@@H](O)C[C@@H](O)[C@H](O)CC[C@@H](O)C[C@@H](O)CC(=O)O[C@H]1C)C[C@H](O)[C@H]2C(=O)O [AMPHOTERICIN B]	–	–	89 nM	–	–	47 nM	–	–
Fc1cccc(COc2ccc(Nc3ncnc4sc(-c5cccc(N6CCOCC6)c5)cc34)cc2Cl)c1	> 15000 nM	–	–	–	–	–	–	–
Fc1cccc(COc2ccc(Nc3nncc4ccc(-c5cccc(N6CCOCC6)c5)cc34)cc2Cl)c1	> 15000 nM	> 50000 nM	> 15000 nM	610 nM	290 nM	1700 nM	400 nM	110 nM
CN1CCCN(S(=O)(=O)c2ccc(-c3ccc4nccc(Nc5ccc(OCc6cccc(F)c6)c(Cl)c5)c4c3)cc2)CC1	4300 nM	930 nM	400 nM	81 nM	140 nM	2300 nM	110 nM	86 nM
Fc1cccc(COc2ccc(Nc3ccnc4ccc(-c5cccc(N6CCOCC6)c5)cc34)cc2Cl)c1	10000 nM	6600 nM	900 nM	96 nM	1000 nM	4000 nM	43 nM	35 nM
O=C(Cn1ccnc1[N+](=O)[O-])NCc1ccccc1 [BENZNIDAZOLE]	–	1200 nM	–	–	–	–	–	–
CN1CCCN(S(=O)(=O)c2ccc(-c3ccc4c(Nc5ccc(OCc6cccc(F)c6)c(Cl)c5)ccnc4c3)cc2)CC1	5000 nM	730 nM	400 nM	66 nM	87 nM	890 nM	67 nM	94 nM
CN1CCCN(S(=O)(=O)c2ccc(-c3ccc4c(Nc5ccc(OCc6cccc(F)c6)c(Cl)c5)nccc4c3)cc2)CC1	> 15000 nM	33000 nM	440 nM	2200 nM	390 nM	4400 nM	1000 nM	410 nM
N#Cc1cnc2ccc(-c3cccc(N4CCOCC4)c3)cc2c1Nc1ccc(OCc2ccccc2)c(Cl)c1	> 15000 nM	> 50000 nM	> 15000 nM	820 nM	760 nM	> 15000 nM	970 nM	970 nM
CN1CCN(S(=O)(=O)c2ccc(-c3ccc4c(Nc5ccc(OCc6cccc(F)c6)c(Cl)c5)cnnc4c3)cc2)CC1	> 15000 nM	3100 nM	5700 nM	55 nM	1000 nM	2000 nM	25 nM	14 nM
CN1CCCN(S(=O)(=O)c2ccc(-c3cc4c(Nc5ccc(OCc6cccc(F)c6)c(Cl)c5)ncnc4s3)cc2)CC1	> 15000 nM	–	–	–	–	–	–	–
O=S(=O)(c1ccc(-c2ccc3cnnc(Nc4ccc(OCc5ccccc5)c(Cl)c4)c3c2)cc1)N1CCOCC1	> 5200 nM	> 50000 nM	> 3400 nM	1700 nM	860 nM	> 4000 nM	1200 nM	540 nM
O=S(=O)(c1ccc(-c2ccc3c(Nc4ccc(OCc5ccccc5)c(Cl)c4)nncc3c2)cc1)N1CCOCC1	> 15000 nM	> 50000 nM	> 15000 nM	350 nM	990 nM	> 15000 nM	170 nM	110 nM
CN1CCCN(S(=O)(=O)c2ccc(-c3cc4ncnc(Nc5ccc(OCc6cccc(F)c6)c(Cl)c5)c4s3)cc2)CC1	> 15000 nM	–	–	–	–	–	–	–
Fc1cccc(COc2ccc(Nc3ncnc4cc(-c5cccc(N6CCOCC6)c5)sc34)cc2Cl)c1	> 15000 nM	–	–	–	–	–	–	–
CN1CCN(S(=O)(=O)c2ccc(-c3cc4ncnc(Nc5ccc(OCc6cccc(F)c6)c(Cl)c5)c4s3)cc2)CC1	> 15000 nM	–	–	–	–	–	–	–
Cc1ccc(C(=O)Nc2ccc(S(=O)(=O)O)c3cc(S(=O)(=O)O)cc(S(=O)(=O)O)c23)cc1NC(=O)c1cccc(NC(=O)Nc2cccc(C(=O)Nc3cc(C(=O)Nc4ccc(S(=O)(=O)O)c5cc(S(=O)(=O)O)cc(S(=O)(=O)O)c45)ccc3C)c2)c1 [SURAMIN]	–	–	–	–	40 nM	–	–	–
CN1CCCN(S(=O)(=O)c2ccc(-c3ccc4ncnc(Nc5ccc(OCc6cccc(F)c6)c(Cl)c5)c4c3)cc2)CC1	1100 nM	510 nM	3600 nM	–	–	2100 nM	–	46 nM
O=S(=O)(c1ccc(-c2cc3ncnc(Nc4ccc(OCc5ccccc5)c(Cl)c4)c3s2)cc1)N1CCOCC1	> 5000 nM	–	–	–	–	–	–	–
